Reference: patent publication US6696600B2, “L-DOPA ethyl ester salts and uses thereof” (priority 2001, dated 2004)
Like-named read-outs stand apart in the source and are kept apart here.

Key:
Format in all cases: physicochemical
[1] = Hygroscopicity test: weight gain of solid sample in humidity chamber at RH=80%; conditions: for hygroscopicity (in words): RH=80% screening; for weight gain in hygroscopicity test / appearance after exposure in a humidity chamber: RH=80%; for weight gain in hygroscopicity test: T=20±2° C., during 24 hrs
Text: There are many methods of quantitative evaluation of hygroscopicity of solid products without measuring the hygroscopic point. The most widely used method is based on measuring the weight gain of a solid sample in a humidity chamber. […] This method was used for screening the hygroscopicity of several LDEE salts. It also provides a comparison of the hygroscopic properties of different solids by comparison of water absorption rates under the same conditions.

[2] = pKa and delta pKa (pKa LDEE − pKa acid)
Text: Preparation and selection of salts that have different physical properties are detailed in the literature. […]. PKa of LDEE free base is known to be 7.24 [8]. […]. This fact is illustrated in Example 1 below, in which the crystallization of LDEE palmitate was attempted. After dissolution of LDEE base and palmitic acid in absolute alcohol, the solution was cooled, and instead of forming a new salt, pure palmitic acid was crystallized out, and no solid crystalline salt was formed. […]

[3] = pH of water solution

Compound | Color stability at RH = 80% [1] [h] | Mean water absorption rate at RH = 80% [1] [mol/kg/h] | Material appearance after 24 hrs at RH = 80% [1] | Weight gain during 24 hrs at RH = 80%,% [1] [%] | hygroscopicity (in words) [1] | weight gain in hygroscopicity test [1] [%] | delta pKa pKaLDEE − pKaacid (first value) [2] | delta pKa pKaLDEE − pKaacid (second value) [2] | delta pKa pKaLDEE − pKaacid (first value) ([2]; first pKa of the acid) | delta pKa pKaLDEE − pKaacid (third value) [2] | water absorption at RH=80% (in words) [1] | appearance after exposure in a humidity chamber ([1]; about 48 hrs) | pH of water solution [3] | delta pKa pKaLDEE − pKaacid (second value) ([2]; second pKa of the acid) | delta pKa pKaLDEE − pKaacid (third value) ([2]; third pKa of the acid) | appearance after exposure in a humidity chamber ([1]; about 24 hrs)
CCOC(=O)C(N)Cc1ccc(O)c(O)c1.O=C(O)C(O)C(O)C(=O)O (mixture of isomers) [Example 7, LDEE (LD)Tartrate] | 20 | 0.146 | Syrup | 6.3 | hygroscopic | 6.3 | 4.26 | 2.90 | – | – | – | – | – | – | – | –
CCOC(=O)[C@@H](N)Cc1ccc(O)c(O)c1.O=C(O)C(O)C(O)C(=O)O [Example 4, LDEE L(+)Tartrate] | 15 | 0.164 | Syrup | 7.1 | hygroscopic | 7.1 | 4.26 | 2.90 | – | – | – | – | – | – | – | –
CCOC(=O)[C@@H](N)Cc1ccc(O)c(O)c1.O=C(O)C(O)C(O)C(=O)O [Example 5, LDEE Hydrogen L(+)Tartrate] | 19 | 0.23 | Syrup | 10.1 | hygroscopic | 10.1 | 4.26 | 2.90 | – | – | – | – | – | – | – | –
CCOC(=O)[C@@H](N)Cc1ccc(O)c(O)c1.O=C(O)C(O)C(O)C(=O)O [Example 6, LDEE D(−)Tartrate] | 20 | 0.155 | – | 6.7 | – | 6.7 | – | – | 4.26 | – | – | – | – | – | – | –
CCOC(=O)[C@@H](N)Cc1ccc(O)c(O)c1.O=C(O)c1ccccc1 [Example 8, LDEE Benzoate] | 4.5 | 0.09 | Semi-solid melt | 4.1 | hygroscopic | 4.1 | 3.03 | – | – | – | – | – | – | – | – | –
CCOC(=O)[C@@H](N)Cc1ccc(O)c(O)c1.O=P(O)(O)O [Example 11, LDEE Phosphate] | 15 | 0.147 | Semi-solid melt | 6.4 | – | 6.4 | 5.09 | 0.04 | – | −4.6 | – | – | – | – | – | –
CCOC(=O)[C@@H](N)Cc1ccc(O)c(O)c1.O=C(O)CC(O)(CC(=O)O)C(=O)O [Example 13, LDEE Citrate] | – | – | – | – | – | – | 4.11 | 4.28 | – | 0.84 | – | – | – | – | – | –
CCOC(=O)[C@@H](N)Cc1ccc(O)c(O)c1.O=C(O)[C@@H](O)c1ccccc1 [Example 15, LDEE S(+)Mandelate] | >24 | 0.092 | Semi-solid melt | 4.0 | hygroscopic | 4.02 | 3.4 | – | – | – | – | – | – | – | – | –
CCOC(=O)[C@@H](N)Cc1ccc(O)c(O)c1.O=C(O)[C@@H](O)c1ccccc1 [Example 16, LDEE S(+)Mandelate] | – | – | – | – | – | – | – | – | 3.4 | – | – | – | – | – | – | –
CCOC(=O)C(N)Cc1ccc(O)c(O)c1.O=C(O)C(O)c1ccccc1 (stereo not drawn) [Example 17, LDEE R(−)Mandelate] | >24 | 0.125 | Semi-solid melt | 5.4 | hygroscopic | 5.4 | – | – | 3.4 | – | – | – | – | – | – | –
CCCCC(=O)O.CCOC(=O)[C@@H](N)Cc1ccc(O)c(O)c1 [Example 18, LDEE Valerate] | – | – | – | – | – | – | ˜2.4 | – | – | – | – | – | – | – | – | –
CCCCCCCC(=O)O.CCOC(=O)[C@@H](N)Cc1ccc(O)c(O)c1 [Example 19, LDEE Octanoate] | >48 | 0.005 | White flowable powder | 0.22 | non-hygroscopic | 0.22 | 2.35 | – | – | – | did not absorb water | white flowable powder | 6.0-6.5 | – | – | –
CCO.CCOC(=O)[C@@H](N)Cc1ccc(O)c(O)c1.CCOC(=O)[C@@H](N)Cc1ccc(O)c(O)c1.O=C(O)CCCCC(=O)O [Example 21, LDEE Adipate Ethanolate] | >24 | 0.121 | Semi-solid melt | 5.25 | hygroscopic | 5.25 | 2.81 | 1.83 | – | – | – | – | 6 | – | – | –
CCOC(=O)C(N)Cc1ccc(O)c(O)c1.O=C(O)C(O)c1ccccc1 (stereo not drawn) [R(−)Mandelate from chloroform, LDEE R(−)Mandelate] | >24 | – | Semi-solid melt | – | – | – | – | – | – | – | – | – | – | – | – | –
LDEE Ascorbate [Example 14] | 0 to 5 | 0.162 | Red semi-solid melt | 7.0 | hygroscopic | 7.04 | 3.14 | – | – | – | – | – | – | – | – | –
LDEE Citrate [Example 12] | 20 | 0.146 | Semi-solid melt | 6.3 | hygroscopic | 6.3 | – | – | 4.11 | – | – | – | – | 4.28 | 0.84 | –
LDEE Myristate [Example 27] | >48 | 0.002 | White flowable powder | 0.11 | non-hygroscopic | 0.11 | ˜2.4 | – | – | – | did not absorb water | – | – | – | – | white flowable powder
LDEE Oleate [Example 26] | – | – | – | – | – | – | ˜2.4 | – | – | – | – | – | – | – | – | –
LDEE Palmitate [Example 20] | – | – | – | – | – | – | 2.4 | – | – | – | – | – | – | – | – | –
Stearate | – | – | – | – | – | – | ˜2.4 | – | – | – | – | – | – | – | – | –
